Read-outs that look alike come from different tables or passages of the source.

The IC50 is the point on the concentration scale where inhibition reaches its midpoint. High values mean weaker potency, low ones greater potency.

Experiment [1] addresses human JAK1 (a.a. 837-1142) (Homo sapiens, UniProt P23458). The experiment is described as follows: In vitro JAK kinase assay (HTRF), JAK1. It is filed as biochemical. Conditions: 1 mM ATP.
Experimental: (§1) The catalytic activity of JAK1, JAK2 or JAK3 was assayed by measuring the phosphorylation of a biotinylated peptide. The phosphorylated peptide was detected by homogenous time resolved fluorescence (HTRF). IC5os of compounds are measured for each kinase in the 40 microL reactions that contain the enzyme, ATP and 500 nM peptide in 50 mM Tris (pH 7.8) buffer with 100 mM NaCl, 5 mM DTT, and 0.1 mg/mL (0.01%) BSA. […] Reactions are carried out at room temperature for 1 hour and then stopped with 20 μL 45 mM EDTA, 300 nM SA-APC, 6 nM Eu-Py20 in assay buffer (Perkin Elmer, Boston, MA). Binding to the Europium labeled antibody takes place for 40 minutes and HTRF signal was measured on a Fusion plate reader (Perkin Elmer, Boston, MA).
For another experiment, the target named is JAK2 (a.a. 828-1132) (Homo sapiens (Human), UniProt O60674). Put plainly: In vitro JAK kinase assay (HTRF), JAK2, for JAK2/JAK1 ratio. Particulars: IC50 ratio at 1 mM ATP. The class given is biochemical. (Time-resolved FRET reads energy transfer from a long-lived donor to a nearby acceptor.)
For the next experiment, the system named is CSU skin. The experiment is described as follows: Ex vivo culture of CSU lesional skin biopsies, RNA-seq gene expression. It is filed as cell-based, human. The procedure:
Full-thickness cutaneous skin biopsies were obtained from active disease, untreated, urticaria patients. A single 4mm-punch biopsy was obtained from the same lesion for each patient and longitudinally divided into two pieces. Biopsies were cultured for 24 hours in KBM media+CaCl2, with or without compound (i.e., Compound 1) or DMSO (control). After 24 hours, tissue RNA was isolated for subsequent analysis. RNA extracts were quantified with the Qubit fluorometer (Invitrogen) and quality assessed by TapeStation automated electrophoresis (Agilent Technologies). Total RNA (250 ng) treated with amplification-grade DNase I (Invitrogen) were enriched for non-ribosomal RNA using the NEBNext rRNA Depletion Kit v2 (New England BioLabs). Library preparation was performed with the NEBNext Ultra II Directional RNA Library Prep Kit for Illumina (New England BioLabs) following the manufactures protocol for library preparation of intact or partially degraded RNA (section 2). For comparability, the same protocol was used for all samples. RNA-seq libraries were pooled and paired-end sequencing was performed on the NextSeq 2000 (Illumina) with an average sequencing depth of 200 M reads. FASTQ files were processed with Nextflow RNASeq pipeline (v. 22.10.1). […] The effects of JAK1 inhibition with Compound 1 on DEGs identified in the prior analysis were further evaluated. […]

The test system of the next experiment is IgE. Conditions: CSU patients, after 12 weeks, with second-generation H1 antihistamine, cited from earlier work.

Sequence of JAK2 (a.a. 828-1132) (O60674 828-1132): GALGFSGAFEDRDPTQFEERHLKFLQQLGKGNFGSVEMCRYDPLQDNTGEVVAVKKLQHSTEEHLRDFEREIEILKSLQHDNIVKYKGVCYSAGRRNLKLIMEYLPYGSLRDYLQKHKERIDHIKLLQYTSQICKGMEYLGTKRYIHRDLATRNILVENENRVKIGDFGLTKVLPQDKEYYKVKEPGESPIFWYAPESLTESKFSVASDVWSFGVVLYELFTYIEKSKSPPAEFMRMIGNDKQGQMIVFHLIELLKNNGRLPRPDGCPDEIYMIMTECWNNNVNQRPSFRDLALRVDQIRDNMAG
Experimental for JAK2 (a.a. 828-1132): as §1

On to `N#CCC1(n2cc(-c3ncnc4[nH]ccc34)cn2)CN(C2CCN(C(=O)c3ccnc(C(F)(F)F)c3F)CC2)C1` [compound 1, {1-{1-[3-Fluoro-2-(trifluoromethyl)isonico-tinoyl]piperidin-4-yl}-3-[4-(7H-pyrrolo[2,3-d]pyrimidin-4-yl)-1H-pyrazol-1-yl]azetidin-3-yl}acetonitrile], for which, in experiment [1], the IC50 is less than 10 nM. The JAK2/JAK1 at JAK2 (a.a. 828-1132) is more than 10. The PTX3 expression entry in the experiment with CSU skin (CSU skin, 24 hour ex vivo treatment, FIG. 1) is listed as “dramatically reduced”. Also, the “CCL2, S100A8, SELE and PTX3 expression” value with CSU skin (cultured CSU skin, 24 hours, vs DMSO control) was “altered expression”.

In the case of “Omalizumab: an anti-IgE monoclonal antibody (administered subcutaneously)”, the “patients achieving a complete response” value is listed as “approximately 35%” in the experiment with IgE and approximately 35% in the experiment on IgE (listed as omalizumab).

Values taken from patent publication US20240058343A1, “TREATMENT OF URTICARIA USING JAK INHIBITORS” (Incyte Corporation, priority 2022, published 2024).
